System: THP-1 Lucia ISG cells
Experiment: ISG-LUC activation assay (ISRE-luciferase assay)
Assay type: cell-based
Details: Homo sapiens, THP1-Lucia ISG; THP-1 Lucia ISG reporter cells, 24 hours; score based upon potency and efficacy relative to reference compound; read-out: ISG-LUC activation assay score
Text: We have established a robust platform for identifying non-nucleotide small molecule STING agonists. his has been established using a primary assay involving a human THP-1 cell line carrying an IRF-inducible reporter with 5 copies of the IFN signaling response element. Counter screens, involving alternative reporter constructs, rodent cell-based assays, as well as cGAS and STING knock-out cell lines, are used to eliminate luciferase artifacts and ensure human-rodent cross species reactivity, as well as pathway selectivity. Biochemical assays, involving cGAS enzymatic activity and STING protein binding assays, are used to identify the specific target of identified hits.
Tissue culture. Wild-type (cat. no. thpl-isg) and STING KO (cat. no. thpd-kostg) THP-1-Lucia ISG cells were purchased from Invivogen and maintained in growth media consisting of RPMI 1640, 2mM L-glutamine, […], 10% heat-inactivated fetal bovine serum (FBS), 1,000 units/ml penicillin, 1,000 μg/ml streptomycin, 0.25 μg/ml Amphotericin B, and 100 μg/ml zeocin unless otherwise stated.
ISRE-luciferase assay. THP-1 Lucia ISG cells were resuspended in low-serum growth media (2% FBS) at a density of 5×10^5 cells/ml and treated with test article or vehicle (DMSO). 50 μL of cells were seeded into each well of a 384-well white greiner plates and incubated for 24 hours. To evaluate expression of the luciferase reporter, 30 μl of Quanti-luc (Invivogen) detection reagent was added to each well and luminescence was read using an Envision plate reader (Perkin Elmer) set with an integration time of 0.1 seconds.

| SMILES | EC50 [nM] |
| --- | --- |
| COC(=O)c1cc(Cl)c(Cl)cc1NC(=O)c1nc2nc(O)ccn2n1 [Compound 77] | > 1000 |
| O=C(Nc1cc(F)c(F)cc1C(=O)O)c1cc2[nH]cnc2cn1 [Compound 78] | > 1000 |
| COC(=O)c1cc(F)c(OC)cc1NC(=O)c1cc(NC(=O)OC(C)(C)C)c2nnnn2n1 [Compound 79] | > 1000 |
| COC(=O)c1cc(F)c(F)cc1NC(=O)c1nc2cnccn2n1 [Compound 80] | > 1000 |
| COc1ccc(C(=O)O)c(NC(=O)c2cc(N)c3nnnn3n2)c1 [Compound 81] | > 1000 |
| Nc1cc(C(=O)Nc2cc(Cl)c(Cl)cc2C(=O)O)nn2nnnc12 [Compound 82] | > 1000 |
| Nc1cc(C(=O)Nc2cc(Cl)c(F)cc2C(=O)O)nn2nnnc12 [Compound 83] | < 900 |
| COc1cc(NC(=O)c2cc(N)c3nnnn3n2)c(C(=O)O)cc1Cl [Compound 84] | > 1000 |
| COC(=O)c1cc(F)c(F)cc1NC(=O)c1cc2ncccn2n1 [Compound 85] | > 20000 |
| COc1cc(NC(=O)c2cc(NC(=O)OC(C)(C)C)c3nnnn3n2)c(C(=O)O)cc1F [Compound 86] | > 1000 |
| COc1cc(NC(=O)c2nc3ccc(C(N)=O)nc3[nH]2)c(C(=O)O)cc1F [Compound 87] | > 20000 |
| O=C(O)c1cc(Cl)c(Cl)cc1NC(=O)c1cccn2cnnc12 [Compound 88] | > 20000 |
| COC(=O)c1cc(Cl)c(Cl)cc1NC(=O)c1cccn2cnnc12 [Compound 89] | > 1000 |
| COC(=O)c1cc(C#N)c(Cl)cc1NC(=O)c1cc2[nH]ncc2cn1 [Compound 90] | > 1000 |
| COC(=O)c1cc(Cl)c(Cl)cc1NC(=O)c1nc2n(n1)CCC(=O)N2 [Compound 91] | > 1000 |
